From ChEMBL document CHEMBL1152393, “Dopamine D(3) receptor antagonists: The quest for a potentially selective PET ligand. Part two: Lead optimization” (Bioorg Med Chem Lett, 2009)

System: Liver microsomes
Settings: human

Row | Structure (SMILES) | CL
1 | O=C1N(CCN2CCC(C(F)(F)F)CC2)CCN1c1cccc(Cl)c1 | 17.6 mL/min/g
2 | CC(C)N1CCN(CCN2CCN(c3cccc(C#N)c3)C2=O)CC1 | < 0.5 mL/min/g

Results, then the compound that gave them:

Row | CL | Structure (SMILES)
3 | 9.1 mL/min/g | N#Cc1cc(N2CCN(CCN3CCC(C(F)(F)F)CC3)C2=O)ccc1F
4 | 1.6 mL/min/g | N#Cc1cccc(N2CCN(CCN3Cc4ccccc4C3)C2=O)c1
5 | 8.9 mL/min/g | O=C1N(CCN2Cc3ccccc3C2)CCN1c1cccc(Cl)c1
